# Columns and labels:
# Myc-CaP cells [1] = assay: Surface MHC (H-2Kq) expression by flow cytometry; assay type: cell-based, mouse; details: agent as named
# Excerpt: Each dot represents an experiment and horizontal lines denote the median.
# Myc-CaP cells [2] = assay: Immunoblot of IRF1 and phosphorylated STAT1; assay type: cell-based, mouse
# Excerpt: Protein loading was confirmed with tubulin antibodies.
# The basis for the synergy between low-dose Oxali and IFNγ was investigated. […] Given the ability of Oxali to induce Ifngr2 mRNA expression, not only in Myc-CaP cells (FIG. 2D) but also in mouse and human melanoma cell lines (FIGS. 11C and 11D), it was postulated that the synergistic activation of IRF1 and STAT1 by Oxali plus IFNγ may be due to IFNγR2 induction.
# [3] = test system: histone acetyltransferase (HAT); assay: HAT activity in lysates of treated cells
# [4] = test system: TRC2 cells expressing ovalbumin variants; details: Oxali-treated TRC2-N4 cells with OT-I CD8+ T cells
# Procedure: FIGS. 2J-2L show TRC2 cells stable transfected with vectors expressing high, medium, and low affinity variants of Ovalbumin were incubated with 4 μM Oxali and/or CFSE-labeled OT-I cells for 72 hr and analyzed by flow cytometry using an antibody that recognizes [sequence] (SEQ ID NO: 24) bound to H-2Kb (FIG. 2J). The number of OT-I cells in each culture (FIG. 2K) and percentage of vital TRC2 cells (FIG. 2L) were determined by flow cytometry.
# [5] = test system: Ifngr2, Tap1 and Psmb8 promoters; assay: ChIP analysis of promoters
# HDACs = assay: HDAC enzyme activity in extracts of treated cells; details: after 6 hours
# Myc-CaP cells [6] = assay: Stress, DNA damage and type I IFN responses (IB, qRT-PCR)
# Excerpt: CRISPR-Cas9 was used to ablate cyclic GMP-AMP synthase (cGAS, encoded by Mb21d1) and Ifnar2 (FIG. 11K).
# Myc-CaP cells [7] = assay: ATAC-seq of chromatin accessibility; assay type: cell-based, mouse
# Excerpt: FIGS. 4A-4D are pictorial and graphical diagrams showing low dose Oxali alters chromatin accessibility of MHC-I related genes. […] The Venn diagram compares gene expression between untreated and differently treated cells (left). The heat map depicts differentially expressed genes involved in the indicated pathways (right). […] The Venn diagram presents the number of binding site changes and overlaps after each treatment (left). FIGS. 4C-4D show detailed ATAC seq analyses of the Nfkb1 gene (FIG. 4C) and a mouse Chr17 gene cluster containing Psmb8, Psmb9, Tap1 and Tap2 (FIG. 4D). Changes in transcription factor (TF) binding site accessibility are compared to RNA seq results. The affected TF binding sites are depicted below each panel.
# FIGS. 12A-12C are pictorial and graphical diagrams showing that low dose Oxali enhances chromatin accessibility of MHC-I related genes.
# To better understand the transcriptional mechanisms underlying the response to Oxali, RNA-seq and ATAC-seq analyses were conducted on Myc-CaP cells that were incubated with either 2 μM Oxali, 1 ng/mL IFNγ, or a combination of the two. By coupling ATAC-seq, a method for assessing transcription factor binding site accessibility (Buenrostro et al., 2015), with RNA-seq, transcription factor loading can be correlated with actual transcriptional changes.
# Of note, the NF-κB pathway, represented by the Nfkb1 gene, was stimulated by Oxali but not IFNγ. […] To examine activation of the antigen processing and presentation pathway, a gene cluster on mouse chromosome 17 harboring Psmb9, Tap1, Psmb8, and Tap2 was analyzed. […] However, IFNγ further enhanced transcription factor accessibility in Oxali-treated cells (FIG. 4D), an effect that was consistent with the transcriptomic analysis (FIG. 4A). […] Similarly, the Erap1 locus, which is induced by both Oxali and IFNγ, was made more accessible by Oxali relative to IFNγ treatment (FIG. 12C). […] The addition of IFNγ expanded this response to include E2F6, JUNB, HIF-lb, KLF3, and DMRT6 binding sites. Of note, the chromosome 17 MHC-I region opened by Oxali contained recognition sites for BORIS and CTCF, two general transcription factors responsible for chromatin opening (Li et al., 2012).
# [8] = test system: s.c. Myc-CaP, B16 or YUMM1.7 tumors; assay: Growth of subcutaneous tumors in mice under weekly Oxali and/or anti-PD-L1; assay type: in vivo, mouse
# Procedure: FIGS. 7A-7G are pictorial and graphical diagrams showing that IFNγR2 induction is needed for the Oxali-potentiated response to anti-PDL1 therapy. […] After four treatment cycles, during which tumor size was measured, the mice were euthanized and analyzed. Significance was determined by Mann-Whitney and t-tests. Transient Cas9 expression was used to avoid any immune response to Cas9-molecules.
# FIGS. 14A-14J are graphical diagrams showing that IFNγR2 expression is needed for platinoid-enhanced anti-PD-L1 responsiveness. […] After three cycles, the mice were euthanized, and tumor volume was determined. Significance was determined by t-tests (n=3). […] Tumor volume was determined using caliper. After three treatment cycles, the mice were euthanized and analyzed. Significance was determined by t-tests. Dots show averages and the brackets indicate±SEM (n=3). […] Each dot represents a mouse and each horizontal line indicates mean±SEM. […] Transient Cas9 expression was used to avoid any immune response to Cas9. Tumor growth was monitored using a caliper and analyzed using t-test. Each dot represents average and the brackets are SEM (n=3-5). […] Each dot represents a mouse and each horizontal line indicates the median.
# The synergistic inhibition of Myc-CaP tumor growth by Oxali+anti-PD-L1 was attenuated by IFNγR2 ablation (FIGS. 7A and 14E). […]
# Myc-CaP and TRC2 cells = assay: Immunoblot of immunoproteasome subunits PSMB8 and PSMB9; details: low-dose
# p300/CBP = assay: p300 immunoblot and imaging; assay type: cell-based, mouse; details: Myc-CaP cells
# [9] = test system: bone marrow (BM)-derived macrophages; assay: Bone marrow derived macrophages, qRT-PCR and flow cytometry; assay type: cell-based, mouse
# LMP7 (PSMB8) = assay: Lysate LMP7 (PSMB8) immunoproteasome activity with specific fluorogenic peptide substrate; assay type: cell-based, mouse; details: low-dose
# Procedure: Lysate LMP7 (PSMB8) immunoproteasome activity was measured using LMP7 (PSMB8) specific fluorogenic peptide substrate. […] Each dot is a single experiment and horizontal lines are the medians.
compound,measurement,setting,value
"O=C1[O][Pt]2([NH][C@@H]3CCCC[C@H]3[NH]2)[O]C1=O [Oxali, oxaliplatin]",surface expression of H-2Kq,Myc-CaP cells [1],induced surface expression of H-2Kq
same,IRF1 expression,Myc-CaP cells [2]; Oxali at 2 μM,induced
same,effect on IRF1 induction by IFNγ,Myc-CaP cells [2]; added to IFNγ,strongly potentiated
same,STAT1 phosphorylation,Myc-CaP cells [2]; added to IFNγ-treated cells,dramatically increased
same,increase in nuclear HAT activity,[3]; after 3 hr of Oxali addition,4 fold
same,HAT enzymatic activity,[3]; within 3 hr,increased
same,OT-I T-cell activation and tumor cell killing,[4],"led to T-cell activation, resulting in tumor cell killing"
same,H3 acetylation (Lysine 14 and 27) of Psmb8 promotor region,[5],increased H3 acetylation
same,effect on HDACs in cytoplasm,HDACs,inhibitory effect
same,eIF2α phosphorylation and CHOP expression,Myc-CaP cells [6],induced
same,"γH2AX, marker of DNA damage",Myc-CaP cells [6],γH2AX induction
same,"Ifna, Ifnb and IL1b expression",Myc-CaP cells [6]; 48 hr,increased
same,"transcription factor accessibility of chromosome 17 cluster Psmb9, Tap1, Psmb8, Tap2",Myc-CaP cells [7],increased transcription factor accessibility
same,accessibility of transcription factor binding sites at the Nfkb1 locus,"Myc-CaP cells [7]; 2 μM Oxali, 1 ng/mL IFNγ",increased accessibility
same,subcutaneous (s.c.) tumor growth,"[8]; Myc-CaP, B16, or YUMM1.7, weekly treatment",little effect
same,tumor regression in vivo,"[8]; low-dose Oxali alone, mouse models of PCa",did not cause tumor regression in vivo
same,PSMB8 and PSMB9 protein expression,Myc-CaP and TRC2 cells,induced
same,nuclear amount of p300 and acetylated p300/CBP,p300/CBP,enhanced the nuclear expression and acetylation of p300/CBP
same,MHC-I machinery component expression,[9],upregulated
same,MHC-II surface expression,[9]; Oxali alone,did not respond to Oxali alone
same,MHC-II expression in macrophages co-stimulated with IFNγ,[9]; plus IFNγ,potentiated MHC-II expression
same,"immunoproteasome activity, hydrolysis of LMP7 (PSMB8)-specific substrate",LMP7 (PSMB8),stimulated

# — patent publication US20210386828A1, “METHODS FOR ENHANCING CANCER IMMUNOTHERAPY” (The Regents of the University of California, priority 2018, published 2021)
